Data as given in ChEMBL document CHEMBL3112568, “Synthesis, antifungal activities and molecular docking studies of novel 2-(2,4-difluorophenyl)-2-hydroxy-3-(1H-1,2,4-triazol-1-yl)propyl dithiocarbamates” (2014).
Converted amounts (≈) assume the structure as drawn.

Legend:
Assay type in all cases: functional
Cryptococcus neoformans = experiment: Antifungal activity against Cryptococcus neoformans after 72 hrs by micro-broth dilution method
Candida albicans [1] = experiment: Antifungal activity against Candida albicans Y0109 after 24 hrs by micro-broth dilution method; conditions: Y0109, 24 h
Candida parapsilosis = experiment: Antifungal activity against Candida parapsilosis by micro-broth dilution method; conditions: Lodderomyces parapsilosis
Candida albicans [2] = experiment: Antifungal activity against Candida albicans SC5314 after 24 hrs by micro-broth dilution method; conditions: SC5314, 24 h
Trichophyton rubrum = experiment: Antifungal activity against Trichophyton rubrum by micro-broth dilution method
Aspergillus fumigatus = experiment: Antifungal activity against Aspergillus fumigatus by micro-broth dilution method
Nannizzia gypsea = experiment: Antifungal activity against Microsporum gypseum by micro-broth dilution method
Nakaseomyces glabratus = experiment: Antifungal activity against Candida glabrata by micro-broth dilution method

Row | SMILES | MIC80 (Cryptococcus neoformans) [µg/mL] | MIC80 (Candida albicans [1]) [µg/mL] | MIC80 (Candida parapsilosis) [µg/mL] | MIC80 (Candida albicans [2]) [µg/mL] | MIC80 (Trichophyton rubrum) [µg/mL] | MIC80 (Aspergillus fumigatus) [µg/mL] | MIC80 (Nannizzia gypsea) [µg/mL] | MIC80 (Nakaseomyces glabratus) [µg/mL]
1 | CNC(=S)SCC(O)(Cn1cncn1)c1ccc(F)cc1F (racemic) | 64 (≈ 186 µM) | 1 (≈ 2.9 µM) | > 64 | 1 (≈ 2.9 µM) | 4 (≈ 11.6 µM) | > 64 | > 64 | 2 (≈ 5.81 µM)
2 | CCNC(=S)SCC(O)(Cn1cncn1)c1ccc(F)cc1F (racemic) | 64 (≈ 179 µM) | 1 (≈ 2.79 µM) | > 64 | 1 (≈ 2.79 µM) | 4 (≈ 11.2 µM) | > 64 | > 64 | 4 (≈ 11.2 µM)
3 | CCCNC(=S)SCC(O)(Cn1cncn1)c1ccc(F)cc1F (racemic) | 64 (≈ 172 µM) | 0.25 (≈ 0.671 µM) | > 64 | 0.25 (≈ 0.671 µM) | 32 (≈ 85.9 µM) | > 64 | > 64 | 2 (≈ 5.37 µM)
4 | CC(C)NC(=S)SCC(O)(Cn1cncn1)c1ccc(F)cc1F (racemic) | 64 (≈ 172 µM) | 1 (≈ 2.68 µM) | 1 (≈ 2.68 µM) | 2 (≈ 5.37 µM) | 64 (≈ 172 µM) | > 64 | > 64 | 4 (≈ 10.7 µM)
5 | CCCCNC(=S)SCC(O)(Cn1cncn1)c1ccc(F)cc1F (racemic) | 64 (≈ 166 µM) | 0.5 (≈ 1.29 µM) | 0.25 (≈ 0.647 µM) | 0.5 (≈ 1.29 µM) | > 64 | > 64 | > 64 | 16 (≈ 41.4 µM)
6 | C=CCNC(=S)SCC(O)(Cn1cncn1)c1ccc(F)cc1F (racemic) | 64 (≈ 173 µM) | 0.5 (≈ 1.35 µM) | 2 (≈ 5.4 µM) | 0.5 (≈ 1.35 µM) | 64 (≈ 173 µM) | > 64 | 64 (≈ 173 µM) | 4 (≈ 10.8 µM)
7 | OC(CSC(=S)NC1CC1)(Cn1cncn1)c1ccc(F)cc1F (racemic) | 64 (≈ 173 µM) | 1 (≈ 2.7 µM) | 1 (≈ 2.7 µM) | 1 (≈ 2.7 µM) | 64 (≈ 173 µM) | > 64 | > 64 | 8 (≈ 21.6 µM)
8 | OC(CSC(=S)NC1CCCCC1)(Cn1cncn1)c1ccc(F)cc1F (racemic) | 16 (≈ 38.8 µM) | 0.25 (≈ 0.606 µM) | 64 (≈ 155 µM) | 0.25 (≈ 0.606 µM) | 64 (≈ 155 µM) | > 64 | > 64 | 4 (≈ 9.7 µM)
9 | OC(Cn1cncn1)(Cn1cncn1)c1ccc(F)cc1F [FLUCONAZOLE] | 1 (≈ 3.27 µM) | 0.25 (≈ 0.816 µM) | 2 (≈ 6.53 µM) | 0.25 (≈ 0.816 µM) | 4 (≈ 13.1 µM) | > 64 | 32 (≈ 104 µM) | 2 (≈ 6.53 µM)
10 | CCC(C)n1ncn(-c2ccc(N3CCN(c4ccc(OCC5COC(Cn6cncn6)(c6ccc(Cl)cc6Cl)O5)cc4)CC3)cc2)c1=O (stereo unspecified) [ITRACONAZOLE] | 4 (≈ 5.67 µM) | 8 (≈ 11.3 µM) | 8 (≈ 11.3 µM) | 4 (≈ 5.67 µM) | 4 (≈ 5.67 µM) | 8 (≈ 11.3 µM) | 4 (≈ 5.67 µM) | 1 (≈ 1.42 µM)
11 | CC(=O)N1CCN(c2ccc(OCC3COC(Cn4ccnc4)(c4ccc(Cl)cc4Cl)O3)cc2)CC1 (stereo unspecified) [KETOCONAZOLE] | 0.25 (≈ 0.47 µM) | 0.25 (≈ 0.47 µM) | 0.5 (≈ 0.941 µM) | ≤ 0.125 | 0.125 (≈ 0.235 µM) | 4 (≈ 7.53 µM) | 1 (≈ 1.88 µM) | 0.5 (≈ 0.941 µM)
12 | CN(C/C=C/C#CC(C)(C)C)Cc1cccc2ccccc12 [TERBINAFINE] | 0.25 (≈ 0.858 µM) | 16 (≈ 54.9 µM) | 1 (≈ 3.43 µM) | 4 (≈ 13.7 µM) | 0.0625 (≈ 0.214 µM) | 0.25 (≈ 0.858 µM) | 0.0625 (≈ 0.214 µM) | 2 (≈ 6.86 µM)
